Experimental data taken from patent publication US20170183306A1, “CYCLIC COMPOUNDS HAVING A 1,3 DIAMINO-FUNCTIONALITY FOR USE IN THE TREATMENT OF HIV INFECTION” (Universite Paris Descartes, priority 2014, published 2017).

Key:
Format in all cases: cell-based
[1] = test system: wild type NL4-3 virus (HIV-1) in HeLa-p4 cells; experiment: HeLa-p4 single-cycle HIV-1 infectivity, beta-galactosidase CPRG test; conditions: Human immunodeficiency virus 1, NL43, HeLaP4, 48 hours after infection, control = NL4-3 virus alone; for activity at 50 µM: read-out: Hela-p4 CPRG 50 μM; for activity at 100 µM: read-out: Hela-p4 CPRG 100 μM
Experimental: (§1) HeLa-p4 cells are HeLa CD4 LTR-LacZ wherein LacZ expression is induced by the trans-activating protein Tat of HIV, making possible the precise quantification of HIV-1 infectivity from a single replication cycle. HeLa-CD4 cells growing exponentially at a density of 1×10^4/mL were placed in 96-well plates and infected the following day with 1 ng of HIV p24 antigen in the presence of different concentrations of compounds. The titles for a single cycle of the viruses were determined 48 hours after infection by quantifying the beta-galactosidase activity in lysates P4 by colorimetric test (CPRG, Promega) based on the cleavage of chlorophenol red-beta-D-galactopyranoside (CPRG) by beta-galactosidase. A cell viability assay measuring the absorbance at […] using the yellow tetrazolium reagent MTS [[…]] (Promega) was carried out.
(§2) For the helap4 cells experiments, the efficacy of the compounds is determined in comparison with control cells containing wild type NL4-3 virus alone (i.e. without any added compound) and is expressed as percentage of control. Then, the viral replication was increased for several compounds at the 50 and 100 μM concentrations with an absence of cytotoxic effects at the same concentrations (MTS test) (table 1).

HeLa-p4 cells = experiment: Cell viability assay (MTS) on HeLa-p4 cells; conditions: cell viability
Experimental: as §1, §2

J-Lat cells = experiment: J-Lat cells, percentage of GFP-positive cells by cytometry; conditions: 24 h, compound alone
Experimental: The J-Lat were grown in RPMI 1640 medium (Gibco-BRL) supplemented with 10% fetal bovine serum, 50 U/ml of penicillin, […] of streptomycin at 37 uC in a humidified 95% air/5% CO2 atmosphere. The cells were plated at 5.105 cells in a 96 well-plate. TNF ? was purchased from Immunosource. SAHA (suberoylanilide hydroxamic acid), prostratin (12-deoxyphorbol-13-acetate) and vorinostat were obtained from Sigma-Aldrich. The J-Lat cells were treated for 24 h with the different compounds alone. The cells were washed twice in PBS, re-suspended in PBS containing 4% paraformaldehyde and fixed for 30 min. Cells were next washed and re-suspended in PBS. The percentage of GFP-positive cells was measured with a LSRFortessa cytometer (Becton-Dickinson) using FACSDiva Version 6.1.3 according to the manufacturer's instructions.
The results for the J-Lat cells experiments are expressed as a percentage of the living fluorescent cells. In this model, some slight increase of viral production measured by fluorescence are quantified (table 1).

SMILES	activity at 50 µM [1] [%]	activity at 100 µM [1] [%]	Hela-p4 MTS 50 μM (HeLa-p4 cells)	Hela-p4 MTS 100 μM (HeLa-p4 cells)	J-lat 50 μM (J-Lat cells)	J-lat 100 μM (J-Lat cells)	activity at 200 µM [1] [%]	Hela-p4 MTS 200 μM (HeLa-p4 cells)
COc1ccc(CC(=O)N2C[C@H](N)C[C@H](N)C2)cc1OC [AB287-F1, 1-((3S,5R)-3,5-diaminopiperidin-1-yl)-2-(3,4-dimethoxyphenyl)ethanone]	137	182	103	92	0.1 percentage of the living fluorescent cells	0.4 percentage of the living fluorescent cells	–	–
CCOc1ccc(CCN2C[C@H](N)C[C@H](N)C2)cc1 [ECO02-005-C, 1-(4-ethoxyphenethyl)piperidine-3,5-diamine]	127	195	106	97	0.5 percentage of the living fluorescent cells	0.1 percentage of the living fluorescent cells	–	–
COc1cccc(CCN2C[C@@H](N)C[C@@H](NC(=O)OC(C)(C)C)C2)c1 [ECO02-078-C]	251	390	105	103	0.8 percentage of the living fluorescent cells	–	145	25
N[C@H]1CC(OCc2cn(CC(=O)c3cc4ccc3CCc3ccc(cc3)CC4)nn2)[C@@H](N)C1 (stereo partly shown) [RA 20]	167	188	108	97	0.1 percentage of the living fluorescent cells	1.1 percentage of the living fluorescent cells	–	–
CC(C)N1C[C@H](N)C[C@H](N)C1 [AB542, 1-isopropylpiperidine-3,5-diamine]	113	106	100	99	0.1 percentage of the living fluorescent cells	0.7 percentage of the living fluorescent cells	–	–
COC(=O)[C@@H](Cc1ccccc1)N1C[C@H](N)C[C@H](N)C1 [AB-109 F3, (R)-methyl 2-((3S,5R)-3,5-diaminopiperidin-1-yl)-3-phenylpropanoate]	164	153	110	95	0.1 percentage of the living fluorescent cells	4.9 percentage of the living fluorescent cells	289	75
COc1cc(N2C[C@H](N)C[C@H](N)C2)cc(OC)c1OC [AB-116, (3S,5R)-1-(3,4,5-trimethoxyphenyl)piperidine-3,5-diamine]	135	172	96	97	0 percentage of the living fluorescent cells	0.5 percentage of the living fluorescent cells	248	86
COc1cc(CN2C[C@H](N)C[C@H](N)C2)cc(OC)c1 [ECO02-064-C, 1-(3,5-dimethoxybenzyl)piperidine-3,5-diamine]	109	133	115	107	2.4 percentage of the living fluorescent cells	–	–	–
CS(=O)(=O)c1ccc(CCN2C[C@H](N)C[C@H](N)C2)cc1 [ECO01-039-C, 1-(4-(methylsulfonyl)phenethyl)piperidine-3,5-diamine]	164	168	95	108	0.1 percentage of the living fluorescent cells	0.1 percentage of the living fluorescent cells	–	–
